From patent publication US7238703B2, “Azabicyclic, azatricyclic and azaspirocyclic derivatives of aminocyclohexane NMDA, 5HT3, and neuronal nicotinic receptor antagonists” (priority 2002, dated 2007)
Structures can show the parent of a compound that is named as a salt. Where two headings read alike, the source gives them in different places.

How the values were obtained:
[1] = target: NMDA receptor ([3H]-(+)-MK-801 site); assay: [3H]-(+)-MK-801 receptor binding, rat cortex membranes; conditions: for Ki: glycine 10 μM, glutamate 10 μM, mean, n=3
Description: Male Sprague-Dawley rats (200-250 g) were decapitated and their brains were removed rapidly. The cortex was dissected and homogenized in 20 volumes of ice-cold 0.32 M sucrose using a glass-Teflon homogenizer. The homogenate was centrifuged at 1000× g for 10 min. The pellet was discarded and the supernatant centrifuged at 20,000× g for 20 min. The resulting pellet was re-suspended in 20 volumes of distilled water and centrifuged for 20 min at 8000× g. Then the supernatant and the buffy coat were centrifuged at 48,000× g for 20 min in the presence of 50 mM Tris-HCl, pH 8.0. The pellet was then re-suspended and centrifuged two to three more times at 48,000× g for 20 min in the presence of 50 mM Tris-HCl, pH 8.0. All centrifugation steps were carried out at 4° C. After resuspension in 5 volumes of 50 mM Tris-HCl, pH 8.0 the membrane suspension was frozen rapidly at −80° C.
On the day of assay the membranes were thawed and washed four times by resuspension in 50 mM Tris-HCl, pH 8.0 and centrifugation at 48,000× g for 20 min. and finally re-suspended in 50 mM Tris-HCl, pH 7.4. The amount of protein in the final membrane preparation (250-500 μg/ml) was determined according to the method of Lowry et al. (1951). Incubations were started by adding [^3H]-(+)-MK-801 (23.9 Ci/mmol, 5 nM, Dupont NEN) to vials with glycine (10 μM), glutamate (10 μM), and 125-250 μg protein (total volume 0.5 ml) and various concentrations of the agents tested (10 concentrations in duplicates). The incubations were continued at room temperature for 120 min (equilibrium was achieved under the conditions used). Non-specific binding was defined by the addition of unlabeled (+)-MK-801 (10 μM). Incubations were terminated using a Millipore filter system. The samples were rinsed twice with 4 ml of ice cold assay buffer over glass fibre filters (Schleicher & Schuell) under a constant vacuum. Following separation and rinse the filters were placed into scintillation liquid (5 ml; Ultima Gold) and radioactivity retained on the filters was determined with a conventional liquid scintillation counter (Hewlett Packard, Liquid Scintillation Analyser). […] Most antagonists were tested in 3 to 7 separate experiments.
IC50s in patch clamp and binding studies were calculated according to the four parameter logistic equation using the Grafit computer program (Erithacus Software, England). Ki value for binding studies were then determined according to Cheng and Prusoff. Binding values presented are means±SEM of 3-5 determinations (each performed in duplicate).

tonic convulsions (MES) = assay: Maximal electroshock (MES) anticonvulsive test; assay type: in vivo, mice; conditions: Mus musculus, ip, read-out: MES ED50
Description: (§1) NMR female mice (18-28 g) housed 5 per cage were used for the maximal electroshock (MES) and motor impairment tests. All animals were kept with water and food ad libitum under a 12 hour light-dark cycle (light on at 6 a.m.) and at a controlled temperature (20±0.5 °C.). All experiments were performed between 10 a.m. and 5 p.m. Tested agents were injected 30 min. i.p. before the induction of convulsions if not stated otherwise (see below). All compounds were dissolved in 0.9% saline.
(§2) The MES test was performed together with tests for myorelaxant action (traction reflex) and motor coordination (rotarod). For the traction reflex test mice were placed with their forepaws on a horizontal rod and were required to place all 4 paws on the wire within 10 seconds. To test ataxia (motor coordination) mice were placed on an accelerating rotarod and were required to remain on the rod for 1 minute. […] These tests were followed by MES (100 Hz, 0.5 second shock duration, 50 mA shock intensity, 0.9 ms impulse duration, Ugo Basile) applied through corneal electrodes. The presence of tonic convulsions was scored (tonic extension of hind paws with minimum angle to the body of 90[…]). The aim was to obtain ED50s for all parameters scored (anticonvulsive activity and motor side effects) with use of the Litchfield Wilcoxon test for quantal dose responses. Division of the ED50 for side effects (ataxia or myorelaxation) by the ED50 for antagonism of electroshock convulsions was used as a therapeutic index (TI).
(§3) ED50s are presented with 95% confidence limits (Cl). Pearson product moment correlation analysis (Sigma Stat, Jandel Scientific) was used to compare in vitro potencies and in vivo anticonvulsant activity.

traction reflex = assay: Myorelaxant action (traction reflex); assay type: in vivo, mice; conditions: for Myorelaxation ED50: NMR female mice, i.p., traction reflex, in mg/kg; for TI Myorelaxation: ED50 myorelaxation divided by ED50 MES
Description: as §1, §2
(§4) Pearson product moment correlation analysis (Sigma Stat, Jandel Scientific) was used to compare in vitro potencies and in vivo anticonvulsant activity.

[2] = Ataxia / motor coordination (rotarod); assay type: in vivo, mice; conditions: mouse, in vivo, ip; NMR female mice, accelerating rotarod
Description: as §1, §2, §3

[3] = Myorelaxant action (traction reflex); assay type: in vivo, mice; conditions: mouse, in vivo, ip; NMR female mice, i.p., traction reflex; read-out: Myorelaxation ED50
Description: as §1, §2, §4

[4] = test system: motor coordination (rotarod); assay: Ataxia / motor coordination (rotarod); assay type: in vivo, mice; conditions: ED50 ataxia divided by ED50 MES
Description: as §1, §2, §3

NR1a/2A receptors = target: T1, NR1a/2A receptors (Homo sapiens, UniProt Q05586+Q12879); assay: NMDA receptor subtype expression in Xenopus oocytes, two-electrode voltage clamp; assay type: cell-based
T1 construct: expressed in transfected cells; host or cells: Xenopus laevis oocytes injected with subunit RNA
T1 sequence (Q12879 23-1464, other chains not shown): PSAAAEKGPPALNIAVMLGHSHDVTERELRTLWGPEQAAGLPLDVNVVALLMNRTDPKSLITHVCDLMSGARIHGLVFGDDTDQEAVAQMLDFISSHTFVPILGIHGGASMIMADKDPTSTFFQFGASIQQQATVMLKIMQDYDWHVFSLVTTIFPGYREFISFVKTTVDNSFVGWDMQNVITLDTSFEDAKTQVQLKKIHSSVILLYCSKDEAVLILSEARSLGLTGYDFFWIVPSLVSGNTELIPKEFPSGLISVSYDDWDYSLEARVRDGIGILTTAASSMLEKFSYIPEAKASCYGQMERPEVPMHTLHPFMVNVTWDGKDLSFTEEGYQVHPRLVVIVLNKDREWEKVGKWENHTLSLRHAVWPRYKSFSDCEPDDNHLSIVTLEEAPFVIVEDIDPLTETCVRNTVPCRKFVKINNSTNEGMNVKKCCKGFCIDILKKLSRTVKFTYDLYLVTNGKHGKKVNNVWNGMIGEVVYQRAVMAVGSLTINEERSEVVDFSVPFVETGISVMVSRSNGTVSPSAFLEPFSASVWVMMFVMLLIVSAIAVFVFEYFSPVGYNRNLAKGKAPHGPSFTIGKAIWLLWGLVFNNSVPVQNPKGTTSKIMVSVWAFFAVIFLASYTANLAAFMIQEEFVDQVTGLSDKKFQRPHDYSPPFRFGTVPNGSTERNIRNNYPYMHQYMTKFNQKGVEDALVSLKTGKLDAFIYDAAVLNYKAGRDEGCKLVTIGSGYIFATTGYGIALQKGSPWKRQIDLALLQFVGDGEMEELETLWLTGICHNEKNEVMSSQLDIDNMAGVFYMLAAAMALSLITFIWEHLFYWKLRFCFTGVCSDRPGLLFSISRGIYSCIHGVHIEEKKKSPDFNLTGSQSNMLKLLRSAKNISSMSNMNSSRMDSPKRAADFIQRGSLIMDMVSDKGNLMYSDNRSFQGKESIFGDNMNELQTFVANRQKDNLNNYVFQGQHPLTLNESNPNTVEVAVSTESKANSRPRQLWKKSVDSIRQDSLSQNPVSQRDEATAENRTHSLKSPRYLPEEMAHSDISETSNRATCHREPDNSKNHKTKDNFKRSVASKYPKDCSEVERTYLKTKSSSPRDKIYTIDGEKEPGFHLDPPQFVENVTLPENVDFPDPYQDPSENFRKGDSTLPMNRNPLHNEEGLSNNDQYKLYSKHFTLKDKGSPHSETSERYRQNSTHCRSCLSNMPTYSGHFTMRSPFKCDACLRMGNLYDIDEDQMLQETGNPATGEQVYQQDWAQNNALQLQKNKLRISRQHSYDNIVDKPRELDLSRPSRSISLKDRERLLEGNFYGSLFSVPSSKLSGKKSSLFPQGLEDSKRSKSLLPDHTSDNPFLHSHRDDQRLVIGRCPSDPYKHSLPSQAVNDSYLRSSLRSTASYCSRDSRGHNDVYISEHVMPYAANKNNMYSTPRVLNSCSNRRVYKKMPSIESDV
Description: Mature female Xenopus laevis were anaesthetized in 0.2% Tricaine on ice for 15 min prior to surgery. Oocytes were removed and incubated in 2 mg/ml collagenase (type II) in Ca^2+-free oocyte Ringer solution (82.5 mM NaCl, 2 mM KCl, 2 mM MgCl2, 5 mM HEPES, pH 7.5) for 30 min. at room temperature and washed thoroughly with OR-2 (100 mM NaCl, 2 mM KCl, 1 mM MgCl2, 2 mM CaCl2, 5 mM HEPES, pH 7.5). The remaining follicle cell layer was removed manually with fine forceps and the oocytes were kept in OR-2. The RNA was dissolved in DEPC-treated, sterile distilled water. RNA for the NMDA NR1a subunit was mixed 1:1 with RNA for the NR2A subunit. Likewise neuronal nicotinic α4 RNA was mixed 1:1 with RNA for the β2 subunit. Fifty to 100 nanoliters of each RNA mixture were injected in the oocyte's cytoplasm using a Nanoliter Injector (World Precision Instruments). The oocytes were incubated at 19° C. in OR-2 for the following 3 to 6 days.
The electrophysiological responses were obtained using the standard two-electrode voltage-clamp method (GeneClamp 500 amplifier), 2-6 days after injection. […] Recordings were made in a custom made chamber with 2 to 3 second exchange times. The bath solution was prepared Ca^2+-free, to avoid Ca^2+-induced Cl^− currents (100 mM NaCl, 2 mM KCl, 5 mM HEPES, 2 mM BaCl2, pH 7.35). NMDA receptors were activated by the manual co-application of 1 mM Glutamate and 10 μM Glycine for 30-40 secs every 2 to 3 mins to oocytes clamped at −70 mV. Neuronal nicotinic receptors were activated by application of 100 μM acetylcholine for 20-30 secs every 2 to 3 mins to oocytes clamped at −70 mV. After obtaining stable control responses, full concentration-response curves with antagonists were obtained by preincubating 6-7 different concentrations at log 3 intervals.
Only results from stable cells were accepted for inclusion in the final analysis i.e. showing at least 50% recovery of responses to NMDA following removal of the antagonist tested. Despite this, recovery from drug actions wasn't always 100% because of minor rundown or runup in some cells. When present, this was always compensated by basing the % antagonism at each concentration on both control and recovery and assuming a linear time course for this rundown. All antagonists were assessed at steady-state blockade with 6 to 7 concentrations on at least 4 cells. Equilibrium blockade was achieved within 1 to 3 agonist applications, depending on antagonist concentration.
Kinetic experiments were performed by applying various concentrations of unsaturated amino-alkyl-cyclohexanes (normally 5 in a log 3 dosing regime) for 10-20 seconds in the continuous presence of glutamate (100 μM and glycine 10 μM) for 90-180 seconds in Xenopus oocytes expressing NR1a/2A receptors. The perfusion system used for these experiments was a modified oocyte carousel system which allows rapid wash in and wash out of agonist and antagonist with change times less than one second. Exponential fits were made using the program TIDA for windows and most responses were well fitted by a single exponential. This same system was used to access the voltage-dependency of blockade, but the bath solution contained flufenamic acid (100 μM) to block endogenous voltage-activated and Ca^2+ activated Cl^− currents. Also, Ba^2+ (2 mM) was replaced by low concentrations of Ca^2+ (0.2 mM). Following equilibrium blockade by higher concentrations of antagonist (normally around 10 times the IC50), five ramps were driven from −70 mV to +30 mV over two seconds. Similar ramps were driven in bath solutions and for glutamate without antagonist, both before antagonist application and following recovery of responses. The leak currents in the absence of glutamate were substrated from the glutamate and glutamate plus antagonist curves. Voltage-dependency was then determined by comparing the glutamate and glutamate plus antagonist curves.

[5] = Xenopus oocytes, N=6, read-out: NMDA IC50

Compound | Ki [1] [µM] | ED50 (tonic convulsions (MES)) [mg/kg] | ED50 at 30 min [2] [mg/kg] | ED50 at 30 min [3] [mg/kg] | IC50 (NR1a/2A receptors; [5]) [µM] | also measured
CN1CC2(C)CC(C)(C)CC1(C)C2.Cl (centres unmarked) [MRZ 2/1003, 1,3,3,5,6-Pentamethyl-6-azabicyclo [3.2.1]octane hydrochloride] | 7.4 | 16.2 | 20.6 |  |  | Myorelaxation ED50 (traction reflex): 16.77
CC1(C)CC(C)(C)CC2(CCCN2)C1.Cl [MRZ 2/1004, 7,7,9,9-Tetramethyl-1-azaspiro[4.5]decane hydrochloride] | 10.5 |  | 24 | 27.5 |  | ED50 (tonic convulsions (MES); NMR female mice, i.p. 30 min before convulsions): 24.1 mg/kg; TI Myorelaxation (traction reflex): 1.14; TI Ataxia [4]: 1.00
CC1(C)CC2(C)CNC(C)(C1)C2.Cl (centres unmarked) [MRZ 2/1010, 1,3,3,5-Tetramethyl-6-azabicyclo [3.2.1]octane hydrochloride] | 2.59 | 5.91 | 24.9 |  |  | IC50 (NR1a/2A receptors): 0.76 µM; Hill (NR1a/2A receptors; Xenopus oocytes expressing NR1a/2A, glutamate 100 μM, glycine 10 μM, -70 mV): 0.63; Myorelaxation ED50 (traction reflex): 10.62
CC1(C)CC(C)(C)CC2(CCCCN2)C1.Cl [MRZ 2/1013, 8,8,10,10-Tetramethyl-1-azaspiro[5.5]undecane hydrochloride] | 3.64 | 9.39 | 37.2 | 34.5 |  | IC50 (NR1a/2A receptors): 4.72 µM; TI Myorelaxation (traction reflex): 3.67; TI Ataxia [4]: 3.97
CCC1CC2(C)CNC(C)(C1)C2 (stereo not drawn) [MRZ 2007, exo-3-Ethyl-1,5-dimethyl-6-azabicyclo[3.2.1]octane hydrochloride] | 5.46 | > 50 | 50 | > 50 | 6.77 | 
CC1CC2(C)CNC(C)(C1)C2 (stereo not drawn) [MRZ 2011, 1,exo-3,5-Trimethyl-6-azabicyclo[3.2.1]octane hydrochloride] | 15.8 |  |  |  |  | 
CCC12CC(C)(C)CC(C)(CN1)C2 (centres unmarked) [MRZ 2022, 5-Ethyl-1,3,3-trimethyl-6-azabicyclo[3.2.1]octane hydrochloride] | 14.4 |  |  |  |  | IC50 (NR1a/2A receptors): 13.9 µM
CCC12CC(C)CC(C)(CN1)C2 (stereo not drawn) [MRZ 2023, 5-Ethyl-1,exo-3-dimethyl-6-azabicyclo[3.2.1]octane hydrochloride] | 23.3 | > 30 | > 30 | > 30 | 16.1 | 
CC1CC2(C)CC(C)(C1)C(c1ccccc1)N2 (stereo not drawn) [MRZ 2028, 1,exo-3,5-Trimethyl-exo,endo-7-phenyl-6-azabicyclo[3.2.1]octane hydrochloride] | 3.21 |  |  |  | 10.3 | 
CC1CC2(C)CC(C)(C1)C(C)N2 (stereo not drawn) [MRZ 2029, 1,exo-3,5,exo,endo-7-Tetramethyl-6-azabicyclo[3.2.1]octane hydrochloride] | 13.2 | > 50 | > 50 | > 50 | 36.1 | 
(+)-5-methyl-10,11-dihydro-5H-dibenzocyclohepten-5,10-imine maleate [[^3H]-(+)-MK-801, reference compound] |  |  |  |  |  | Kd ([1]; read-out: Kd of radioligand by Scatchard analysis): 0.0046 µM
